Source: patent US20220072095A1, “METHODS AND COMPOSITIONS FOR TREATING SKIN DISEASES” (VANDERBILT UNIVERSITY, priority 2018, published 2022)
Values after ≈ are worked out from the molar mass of the structure shown. Bridge positions count the residues as written; N and C are the ends. Peptide text beside a SMILES is read from it.

What was measured:
[1] = Solubility of NTM peptides; assay type: physicochemical; conditions: cSN50: depending on the method of synthesis and purification; read-out: soluble at levels of
Protocol: cSN50.1 is a cyclized peptide having the sequence of cSN50 with the exception that the tyrosine at position 18 of cSN50, adjacent to the first cysteine, has been removed. Methods of making and using cSN50 are described, for example, in U.S. Pat. Nos. 7,553,929 and 6,495,518. The amino acid sequence of cSN50.1 is […] (SEQ ID NO: 2). The tyrosine at position 18 was removed from the sequence of cSN50 to increase solubility. cSN50 is soluble at levels of ranging from 2.0 mg/mL to 40 mg/mL depending on the method of synthesis and purification whereas cSN50.1 is soluble at levels of at least 100 mg/ml. Any mimetics, derivatives, or homologs of cSN50.1 may be used in the compositions, methods, and kits disclosed herein. cSN50.1 is also encompassed by SEQ ID NO: 3, SEQ ID NO: 4 and SEQ ID NO: 5. Additional examples of NTMs include fragment-designed and synthesized peptides in which cargo is incorporated as two, rather than one, modules or cargos derived from intracellular proteins other than NFκB 1. Such additional examples include the sequences of SEQ ID NO: 6, SEQ ID NO: 7, SEQ ID NO: 8, and SEQ ID NO: 9.

Imp beta = Imp beta (Homo sapiens, UniProt Q14974); conditions: cell culture and preclinical studies
Sequence of Imp beta (Q14974 whole entry, looked up): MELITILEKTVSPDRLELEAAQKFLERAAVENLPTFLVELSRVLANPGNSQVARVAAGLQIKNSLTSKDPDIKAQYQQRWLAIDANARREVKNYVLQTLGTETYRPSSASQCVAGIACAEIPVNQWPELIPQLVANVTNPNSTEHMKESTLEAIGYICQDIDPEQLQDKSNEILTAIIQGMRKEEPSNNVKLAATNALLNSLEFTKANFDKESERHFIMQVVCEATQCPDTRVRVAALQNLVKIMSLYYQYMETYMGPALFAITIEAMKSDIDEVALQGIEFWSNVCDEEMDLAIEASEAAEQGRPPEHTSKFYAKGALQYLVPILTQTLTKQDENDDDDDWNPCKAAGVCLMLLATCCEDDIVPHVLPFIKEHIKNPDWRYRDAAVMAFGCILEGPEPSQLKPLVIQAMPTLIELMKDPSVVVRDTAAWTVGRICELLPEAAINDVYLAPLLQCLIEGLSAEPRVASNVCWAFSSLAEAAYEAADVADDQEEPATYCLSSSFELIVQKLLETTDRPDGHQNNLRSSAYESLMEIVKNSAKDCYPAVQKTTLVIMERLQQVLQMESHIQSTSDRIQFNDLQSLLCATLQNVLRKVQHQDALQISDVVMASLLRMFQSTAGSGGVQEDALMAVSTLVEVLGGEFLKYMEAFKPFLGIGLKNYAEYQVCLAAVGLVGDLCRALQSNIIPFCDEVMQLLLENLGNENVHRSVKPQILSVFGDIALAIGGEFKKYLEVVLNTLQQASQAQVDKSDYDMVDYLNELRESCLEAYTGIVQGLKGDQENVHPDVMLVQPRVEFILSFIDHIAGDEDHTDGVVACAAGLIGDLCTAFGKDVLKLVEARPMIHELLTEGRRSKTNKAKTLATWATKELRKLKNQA

solubility [1] [mg/mL]	Molecule	importin selectivity (Comments) (Imp beta)
≥ 100	CSCC[C@@H]1NC(=O)[C@H](CC(C)C)NC(=O)[C@H](CCCCN)NC(=O)[C@H](CCC(N)=O)NC(=O)[C@H](CCCNC(=N)N)NC(=O)[C@H](CCCCN)NC(=O)[C@H](CCCNC(=N)N)NC(=O)[C@H](CCC(N)=O)NC(=O)[C@H](C(C)C)NC(=O)[C@@H](NC(=O)[C@@H]2CCCN2C(=O)[C@H](C)NC(=O)[C@H](CC(C)C)NC(=O)[C@H](CC(C)C)NC(=O)[C@H](C)NC(=O)[C@H](CC(C)C)NC(=O)[C@H](CC(C)C)NC(=O)[C@@H](NC(=O)[C@H](C)NC(=O)[C@@H]2CCCN2C(=O)[C@H](CC(C)C)NC(=O)[C@H](CC(C)C)NC(=O)[C@H](C)NC(=O)[C@@H](NC(=O)[C@H](C)NC(=O)[C@H](C)N)C(C)C)C(C)C)CSSC[C@@H](C(=O)O)NC(=O)[C@@H]2CCCN2C1=O [cSN50.1] (H-AAVALLPAVLLALLAPCVQRKRQKLMPC-OH; disulfide 17-28; N-terminus and C-terminus assumed)	–
2 to 40 (≈ 0.635 to 12.7 mM)	CSCC[C@@H]1NC(=O)[C@H](CC(C)C)NC(=O)[C@H](CCCCN)NC(=O)[C@H](CCC(N)=O)NC(=O)[C@H](CCCNC(=N)N)NC(=O)[C@H](CCCCN)NC(=O)[C@H](CCCNC(=N)N)NC(=O)[C@H](CCC(N)=O)NC(=O)[C@H](C(C)C)NC(=O)[C@H](Cc2ccc(O)cc2)NC(=O)[C@@H](NC(=O)[C@@H]2CCCN2C(=O)[C@H](C)NC(=O)[C@H](CC(C)C)NC(=O)[C@H](CC(C)C)NC(=O)[C@H](C)NC(=O)[C@H](CC(C)C)NC(=O)[C@H](CC(C)C)NC(=O)[C@@H](NC(=O)[C@H](C)NC(=O)[C@@H]2CCCN2C(=O)[C@H](CC(C)C)NC(=O)[C@H](CC(C)C)NC(=O)[C@H](C)NC(=O)[C@@H](NC(=O)[C@H](C)NC(=O)[C@H](C)N)C(C)C)C(C)C)CSSC[C@@H](C(=O)O)NC(=O)[C@@H]2CCCN2C1=O [cSN50] (H-AAVALLPAVLLALLAPCYVQRKRQKLMPC-OH; disulfide 17-29; N-terminus and C-terminus assumed)	–
–	AAVALLPAVLLALLAPCVQRDEQKLMPC [cSN50.1β]	Imp beta-selective
